Here are results for six compounds from patent US5998488A, “Ophthalmic composition” (Lion Corporation, priority 1994, dated 1999).

In data set [1] the test system is Pseudomonas aeruginosa (P. aeru). In words: Antimicrobial test (preservative effectiveness test, USP), P. aeru. The data set is classed as cell-based. As to conditions: benzalkonium chloride 0.01%. On the procedure: (§1) The solutions of Experiment 1 were subject to an antimicrobial test.
(§2) Using bacteria Escherichia coli (E. coli), Pseudomonas aeruginosa (P. aeru), and Stapyrococcus aureus (S. aureus) and fungi Aspergillus nigar (A. nigar) and Candida albicans (Candida) as infectious microorganisms, a preservative effectiveness test was carried out according to the Pharmacopoeia of the United States.
(§3) ++: microorganisms died within 5 days
(§4) +: microorganisms died in 6-10 days
(§5) -:microorganisms died in 11-15 days or over 15 days

Data set [2] deals with Candida albicans (Candida). In words: Antimicrobial test (preservative effectiveness test, USP), Candida. The data set is classed as cell-based. As to conditions: benzalkonium chloride 0.01%. On the procedure:
as §1, §2, §3, §4, §5

Data set [3] has as its system Aspergillus nigar (A. nigar). Kind of data set: Antimicrobial test (preservative effectiveness test, USP), A. nigar. The data set is classed as cell-based. As to conditions: benzalkonium chloride 0.01%. The protocol: as §1, §2, §3, §4, §5
Data set [4] is classed as physicochemical. To be noted: 6 months at 50° C. On the procedure: […] More specifically, solutions were prepared in accordance with the formulation shown in Experiment 1 while the amount of α-cyclodextrin mixed was in the range of 0.03 to 2%.
The subject of data set [5] is E. coli, P. aeru, S. aureus, A. nigar, Candida. Kind of data set: Antimicrobial test (preservative effectiveness test, USP), microorganism type not specified. The data set is classed as cell-based. To be noted: α-cyclodextrin 0.03% or more. The protocol:
as §2, §3, §4, §5
Solutions were prepared in accordance with the formulation shown in Experiment 1 in a conventional manner as used in the preparation of eye drops while the amount of disodium ethylenediaminetetraacetate (EDTA-2Na) blended was in the range of 0.002 to 0.3%. The solutions were subject to the antimicrobial test of Experiment 3 and evaluated for antimicrobial activity according to the same criterion as above.
Solutions of the following formulation were prepared in a conventional manner as used in the preparation of eye drops.
The solutions were subject to the antimicrobial test of Experiment 3 and evaluated for antimicrobial activity according to the same criterion as above.
Solutions of the formulation shown in Table 7 were prepared to a total amount of 1,000 g in a conventional manner as used in the preparation of eye drops. […] The ophthalmic solutions were subject to the same tests as in Experiments 1 and 3. In the test of Experiment 3, the ophthalmic solutions were evaluated for antimicrobial activity according to the same criterion as before.

A short description of data set [6]: Benzalkonium chloride adsorption test (soft contact lens Nichicon Soft μ). The data set is classed as physicochemical. To be noted: benzalkonium chloride 0.01%, 25° C., 24 hours. On the procedure:
(§6) A test was conducted to examine the inhibition of benzalkonium chloride adsorption to soft contact lenses. Solutions of the following formulation were prepared in a conventional manner as used in the preparation of eye drops.
(§7) The percent inhibition of benzalkonium chloride adsorption to commercially available soft contact lenses was determined by the following test.
(§8) Benzalkonium chloride adsorption test A 30-ml vial was charged with 10 ml of the solution and a soft contact lens was immersed therein. In a constant temperature tank at 25° C., the vial was shaken for 24 hours. After the contact lens was removed from the vial, the concentration of benzalkonium chloride in the solution was quantitatively determined by high performance liquid chromatography. A percent inhibition of adsorption was calculated according to the following formula.
(§9) As a control, the above procedure was repeated except that no contact lens was immersed.
(§10) Inhibition of adsorption (%)=(concentration of benzalkonium chloride in sample solution)/(concentration of benzalkonium chloride in control solution)×100
(§11) Note that Seequence, Nichicon Soft and Menicon Soft are trademarks of soft contact lenses commercially available from Bausch & Lomb, Nihon Contact K.K., and Menicon K.K., respectively.

For data set [7], the system named is Stapyrococcus aureus (S. aureus). In words: Antimicrobial test (preservative effectiveness test, USP), S. aureus. To be noted: benzalkonium chloride 0.01%. The data set is classed as cell-based. The protocol: as §1, §2, §3, §4, §5
Data set [8] can be described thus: Benzalkonium chloride adsorption test (soft contact lens Menicon Soft 72). The data set is classed as physicochemical. To be noted: benzalkonium chloride 0.01%, 25° C., 24 hours. The protocol:
as §6, §7, §8, §9, §10, §11

A short description of data set [9]: Benzalkonium chloride adsorption test (soft contact lens Seequence). The data set is classed as physicochemical. To be noted: benzalkonium chloride 0.01%, 25° C., 24 hours. On the procedure: as §6, §7, §8, §9, §10, §11
For data set [10], the system named is Escherichia coli (E. coli). In words: Antimicrobial test (preservative effectiveness test, USP), E. coli. The data set is classed as cell-based. To be noted: benzalkonium chloride 0.01%. On the procedure: as §1, §2, §3, §4, §5
Data set [11] can be described thus: Benzalkonium chloride adsorption test (soft contact lenses, lens not given). The data set is classed as physicochemical. As to conditions: for Inhibition of adsorption, cyclodextrin in place of α-cyclodextrin (in words): α-cyclodextrin replaced by the other cyclodextrin. The protocol: as §7, §8, §9, §10
Solutions of the formulation shown in Table 7 were prepared to a total amount of 1,000 g in a conventional manner as used in the preparation of eye drops. Ophthalmic solutions of Examples 2 to 13 were obtained. The ophthalmic solutions were subject to the same tests as in Experiments 1 and 3. In the test of Experiment 3, the ophthalmic solutions were evaluated for antimicrobial activity according to the same criterion as before.

Read-outs that look alike come from different tables or passages of the source.

As to `OC[C@H]1O[C@@H]2O[C@H]3[C@H](O)[C@@H](O)[C@@H](O[C@H]4[C@H](O)[C@@H](O)[C@@H](O[C@H]5[C@H](O)[C@@H](O)[C@@H](O[C@H]6[C@H](O)[C@@H](O)[C@@H](O[C@H]7[C@H](O)[C@@H](O)[C@@H](O[C@H]1[C@H](O)[C@H]2O)O[C@@H]7CO)O[C@@H]6CO)O[C@@H]5CO)O[C@@H]4CO)O[C@@H]3CO` [α-cyclodextrin], the Antimicrobial activity result in data set [1] (α-cyclodextrin 0.01%) is reported as “+ (microorganisms died in 6-10 days)”; in data set [1] (α-cyclodextrin 0.02%), “+ (microorganisms died in 6-10 days)”; in [1] (α-cyclodextrin 0.03%), “- (microorganisms died in 11-15 days or over 15 days)”; in data set [1] (α-cyclodextrin 0.05%), “- (microorganisms died in 11-15 days or over 15 days)”; in data set [1] (α-cyclodextrin 0.1%), “- (microorganisms died in 11-15 days or over 15 days)”; in data set [1] (α-cyclodextrin 0.2%), “- (microorganisms died in 11-15 days or over 15 days)”. For the same compound, the Antimicrobial activity entry in data set [1] (α-cyclodextrin 0.3%) is “- (microorganisms died in 11-15 days or over 15 days)”; in data set [2] (α-cyclodextrin 0.01%), “+ (microorganisms died in 6-10 days)”; in data set [2] (α-cyclodextrin 0.02%), “+ (microorganisms died in 6-10 days)”; in data set [2] (α-cyclodextrin 0.03%), “- (microorganisms died in 11-15 days or over 15 days)”; in data set [2] (α-cyclodextrin 0.05%), “- (microorganisms died in 11-15 days or over 15 days)”; in data set [2] (α-cyclodextrin 0.1%), “- (microorganisms died in 11-15 days or over 15 days)”. Moreover, the Antimicrobial activity entry in [2] (α-cyclodextrin 0.2%) is “- (microorganisms died in 11-15 days or over 15 days)”; in [2] (α-cyclodextrin 0.3%) it was “- (microorganisms died in 11-15 days or over 15 days)”; in data set [3] (α-cyclodextrin 0.01%) it was “+ (microorganisms died in 6-10 days)”; in data set [3] (α-cyclodextrin 0.02%), “+ (microorganisms died in 6-10 days)”; in [3] (α-cyclodextrin 0.03%) it was “- (microorganisms died in 11-15 days or over 15 days)”; in data set [3] (α-cyclodextrin 0.05%), “- (microorganisms died in 11-15 days or over 15 days)”. In addition, the Antimicrobial activity result in data set [3] (α-cyclodextrin 0.1%) is given as “- (microorganisms died in 11-15 days or over 15 days)”; in [3] (α-cyclodextrin 0.2%), “- (microorganisms died in 11-15 days or over 15 days)”; in data set [3] (α-cyclodextrin 0.3%) it was “- (microorganisms died in 11-15 days or over 15 days)”; in data set [7] (α-cyclodextrin 0.01%), “+ (microorganisms died in 6-10 days)”; in [7] (α-cyclodextrin 0.02%) it was “+ (microorganisms died in 6-10 days)”; in data set [7] (α-cyclodextrin 0.03%), “- (microorganisms died in 11-15 days or over 15 days)”. Also, the Antimicrobial activity result is listed as “- (microorganisms died in 11-15 days or over 15 days)” in data set [7] (α-cyclodextrin 0.05%); “- (microorganisms died in 11-15 days or over 15 days)” in data set [7] (α-cyclodextrin 0.1%); “- (microorganisms died in 11-15 days or over 15 days)” in [7] (α-cyclodextrin 0.2%); “- (microorganisms died in 11-15 days or over 15 days)” in data set [7] (α-cyclodextrin 0.3%); “+ (microorganisms died in 6-10 days)” in data set [10] (α-cyclodextrin 0.01%); “+ (microorganisms died in 6-10 days)” in [10] (α-cyclodextrin 0.02%). Moreover, the Antimicrobial activity result in [10] (α-cyclodextrin 0.03%), in [10] (α-cyclodextrin 0.05%), in data set [10] (α-cyclodextrin 0.1%), in data set [10] (α-cyclodextrin 0.2%) and in data set [10] (α-cyclodextrin 0.3%) was “- (microorganisms died in 11-15 days or over 15 days)” each time. Besides, the values for the Stability entry in data set [4] (α-cyclodextrin 0.03%), in [4] (α-cyclodextrin 0.5%) and in data set [4] (α-cyclodextrin 1%) were “.largecircle”, “.largecircle” and “Δ”, respectively. Also, the “Antimicrobial activity of solution containing benzalkonium chloride (in words)” value in data set [5] is “significantly reduced in antimicrobial activity”. The Inhibition of adsorption in data set [6] (α-cyclodextrin 0.01%) was found to be 87%; in data set [6] (α-cyclodextrin 0.02%) it was 93%; in data set [6] (α-cyclodextrin 0.03%), 100%; in [6] (α-cyclodextrin 0.05%) it was 100%; in data set [6] (α-cyclodextrin 0.1%), 100%; in data set [6] (α-cyclodextrin 0.2%), 100%. Besides, the Inhibition of adsorption was 100% in data set [6] (α-cyclodextrin 0.3%); 88% in [8] (α-cyclodextrin 0.01%); 92% in data set [8] (α-cyclodextrin 0.02%); 100% in [8] (α-cyclodextrin 0.03%); 100% in data set [8] (α-cyclodextrin 0.05%); 100% in data set [8] (α-cyclodextrin 0.1%). In addition, the Inhibition of adsorption in data set [8] (α-cyclodextrin 0.2%) worked out at 100%; in data set [8] (α-cyclodextrin 0.3%) it was 100%; in data set [9] (α-cyclodextrin 0.01%), 88%; in [9] (α-cyclodextrin 0.02%), 92%; in [9] (α-cyclodextrin 0.03%), 100%; in [9] (α-cyclodextrin 0.05%) it was 100%. The Inhibition of adsorption in data set [9] (α-cyclodextrin 0.1%), in data set [9] (α-cyclodextrin 0.2%) and in [9] (α-cyclodextrin 0.3%) was 100% in each case. Also, in data set [11] (concentration of at least 0.03%), the “Inhibition of adsorption of benzalkonium chloride to soft contact lenses (in words)” value is “The inhibition effect is remarkable”.

Take methylated cyclodextrin: in data set [11], the “Inhibition of adsorption, cyclodextrin in place of α-cyclodextrin (in words)” value (“Inhibition of adsorption, cyclodextrin” for short) is on record as “Approximately equivalent results”.

As for hydroxyethylated cyclodextrin, the “Inhibition of adsorption, cyclodextrin” value in [11] is given as “Approximately equivalent results”.

Take `OC[C@H]1O[C@@H]2O[C@H]3[C@H](O)[C@@H](O)[C@@H](O[C@H]4[C@H](O)[C@@H](O)[C@@H](O[C@H]5[C@H](O)[C@@H](O)[C@@H](O[C@H]6[C@H](O)[C@@H](O)[C@@H](O[C@H]7[C@H](O)[C@@H](O)[C@@H](O[C@H]8[C@H](O)[C@@H](O)[C@@H](O[C@H]9[C@H](O)[C@@H](O)[C@@H](O[C@H]1[C@H](O)[C@H]2O)O[C@@H]9CO)O[C@@H]8CO)O[C@@H]7CO)O[C@@H]6CO)O[C@@H]5CO)O[C@@H]4CO)O[C@@H]3CO` [γ-cyclodextrin]: the “Inhibition of adsorption, cyclodextrin” value in data set [11] is recorded as “Approximately equivalent results”.

With `OC[C@H]1O[C@@H]2O[C@H]3[C@H](O)[C@@H](O)[C@@H](O[C@H]4[C@H](O)[C@@H](O)[C@@H](O[C@H]5[C@H](O)[C@@H](O)[C@@H](O[C@H]6[C@H](O)[C@@H](O)[C@@H](O[C@H]7[C@H](O)[C@@H](O)[C@@H](O[C@H]8[C@H](O)[C@@H](O)[C@@H](O[C@H]1[C@H](O)[C@H]2O)O[C@@H]8CO)O[C@@H]7CO)O[C@@H]6CO)O[C@@H]5CO)O[C@@H]4CO)O[C@@H]3CO` [β-cyclodextrin], the “Inhibition of adsorption, cyclodextrin” value in data set [11] is listed as “Approximately equivalent results”.

Regarding `OC[C@H]1O[C@@H]2O[C@H]3[C@H](O)[C@@H](O)[C@@H](O[C@H]4[C@H](O)[C@@H](O)[C@@H](O[C@H]5[C@H](O)[C@@H](O)[C@@H](O[C@H]6[C@H](O)[C@@H](O)[C@@H](O[C@H]7[C@H](O)[C@@H](O)[C@@H](O[C@H]8[C@H](O)[C@@H](O)[C@@H](O[C@H]9[C@H](O)[C@@H](O)[C@@H](O[C@H]%10[C@H](O)[C@@H](O)[C@@H](O[C@H]1[C@H](O)[C@H]2O)O[C@@H]%10CO)O[C@@H]9CO)O[C@@H]8CO)O[C@@H]7CO)O[C@@H]6CO)O[C@@H]5CO)O[C@@H]4CO)O[C@@H]3CO` [δ-cyclodextrin], the “Inhibition of adsorption, cyclodextrin” value in data set [11] is listed as “Approximately equivalent results”.
